Where a SMILES comes first, the peptide text is derived from it. Bridges are numbered along the chain shown (N, C = ends). [ ]: non-standard residue; d: D form. ξ: configuration not given here. Trp(1-CH2COOH) = N[C@@H](Cc1cn(CC(=O)O)c2ccccc12)C(=O)O; Phe(3,4,5-F3) = N[C@@H](Cc1cc(F)c(F)c(F)c1)C(=O)O; Phe(3,4-F2) = N[C@@H](Cc1ccc(F)c(F)c1)C(=O)O; Morpholine(3S-CO) = O=C(O)[C@@H]1COCCN1; Phe(4-F) = N[C@@H](Cc1ccc(F)cc1)C(=O)O; d(cisHyp) = O=C(O)[C@H]1C[C@@H](O)CN1; Bta = N[C@@H](Cc1csc2ccccc12)C(=O)O; Hyp = O=C(O)[C@@H]1C[C@@H](O)CN1; NMeF = CN[C@@H](Cc1ccccc1)C(=O)O; dNMeF = CN[C@H](Cc1ccccc1)C(=O)O; dHyp = O=C(O)[C@H]1C[C@H](O)CN1; NMeL = CN[C@@H](CC(C)C)C(=O)O; NMeNle = CCCC[C@H](NC)C(=O)O; dPip = O=C(O)[C@H]1CCCCN1; hSer = N[C@@H](CCO)C(=O)O; NMeA = CN[C@@H](C)C(=O)O; Orn = NCCC[C@H](N)C(=O)O; Dab = NCC[C@H](N)C(=O)O; Dap = NC[C@H](N)C(=O)O; ξC = NC(CS)C(=O)O
The compounds below were run against T1, Human PD-L1/PD-1 (Homo sapiens, UniProt Q9NZQ7) (assay: HTRF Human PD-L1/PD-1 binding assay (PD-1-Ig/PD-L1-His)). Settings: PD-L1-His 10 nM, PD-1-Ig 20 nM; class symbol; read-out: HTRF Human PD-L1/PD-1 Binding Assay IC50 Range.
T1 construct: TVMV protease cleavage site (C); made in house; host or cells: HEK293T cells
T1 sequence (Q9NZQ7 with tags, fused parts or gaps): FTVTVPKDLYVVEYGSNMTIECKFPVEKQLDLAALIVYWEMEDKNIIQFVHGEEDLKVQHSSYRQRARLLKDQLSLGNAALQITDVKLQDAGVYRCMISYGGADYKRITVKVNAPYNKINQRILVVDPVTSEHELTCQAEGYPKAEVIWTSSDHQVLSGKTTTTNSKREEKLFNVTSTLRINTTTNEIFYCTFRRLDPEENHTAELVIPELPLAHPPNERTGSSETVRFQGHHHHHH
In short: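 Inhibitors were preincubated 15 min with human PD-L1(18-239)-His (10 nM final), then PD-1(25-167)-Ig (20 nM final) was added for 15 min in dPBS/0.1% BSA/0.05% Tween-20. Eu-cryptate anti-Ig (1 nM) and APC anti-His (20 nM) were added; 665/620 nm ratio read after 30 min.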

Row | IC50 | SMILES
1 | 1 to 9.9 nM | CCCC[C@H]1C(=O)N(C)[C@@H](CCCC)C(=O)N[C@@H](CCC(=O)O)C(=O)N[C@H](C(=O)NCC(N)=O)CSCC(=O)N[C@@H](Cc2ccc(O)cc2)C(=O)N(C)[C@@H](C)C(=O)N[C@@H](CC(N)=O)C(=O)N2CCC[C@H]2C(=O)N[C@@H](Cc2cnc[nH]2)C(=O)N[C@@H](CCCN)C(=O)N2C[C@H](O)C[C@H]2C(=O)N[C@@H](Cc2c[nH]c3ccccc23)C(=O)N[C@@H](CCCCN)C(=O)N[C@@H](Cc2cn(CC(=O)O)c3ccccc23)C(=O)N1C [Example 6267] ({CH2CO}-Y[NMeA]NPH[Orn][Hyp]WK[Trp(1-CH2COOH)][NMeNle][NMeNle]ECG-NH2; thioether N-14)
2 | 1 to 9.9 nM | CCCC[C@H]1C(=O)N(C)[C@@H](CCCC)C(=O)N[C@@H](CN)C(=O)N[C@H](C(=O)NCC(N)=O)CSCC(=O)N[C@@H](Cc2ccc(O)cc2)C(=O)N(C)[C@@H](C)C(=O)N[C@@H](CC(N)=O)C(=O)N2CCC[C@H]2C(=O)N[C@@H](CN)C(=O)N[C@@H](CCC(=O)O)C(=O)N2C[C@H](O)C[C@H]2C(=O)N[C@@H](Cc2c[nH]c3ccccc23)C(=O)N[C@@H](CO)C(=O)N[C@@H](Cc2cn(CC(=O)O)c3ccccc23)C(=O)N1C [Example 5231] ({CH2CO}-Y[NMeA]NP[Dap]E[Hyp]WS[Trp(1-CH2COOH)][NMeNle][NMeNle][Dap]CG-NH2; thioether N-14)
3 | 1 to 9.9 nM | CCCC[C@H]1C(=O)N(C)[C@@H](C)C(=O)N[C@@H](CCCNC(=N)N)C(=O)NC(C(=O)NCC(N)=O)CSCC(=O)N[C@@H](Cc2ccc(O)cc2)C(=O)N(C)[C@@H](C)C(=O)N[C@@H](CC(N)=O)C(=O)N2CCC[C@H]2C(=O)N[C@@H](CC(N)=O)C(=O)N[C@@H](CC(C)C)C(=O)N2C[C@H](O)C[C@H]2C(=O)N[C@@H](Cc2c[nH]c3ccccc23)C(=O)N[C@@H](CO)C(=O)N[C@@H](Cc2csc3ccccc23)C(=O)N1C (stereo partly drawn) [Example 9139] ({CH2CO}-Y[NMeA]NPNL[Hyp]WS[Bta][NMeNle][NMeA]R[ξC]G-NH2; thioether N-14)
4 | 1 to 9.9 nM | CCCC[C@H]1C(=O)N(C)[C@@H](C)C(=O)N[C@@H](CCCNC(=N)N)C(=O)NC(C(=O)NCC(N)=O)CSCC(=O)N[C@@H](Cc2ccc(O)cc2)C(=O)N(C)[C@@H](C)C(=O)N[C@@H](CC(N)=O)C(=O)N2CCC[C@H]2C(=O)N[C@@H](CC(N)=O)C(=O)N[C@@H](CC(C)C)C(=O)N2CCC[C@H]2C(=O)N[C@@H](Cc2c[nH]c3ccccc23)C(=O)N[C@@H](CO)C(=O)N[C@@H](Cc2csc3ccccc23)C(=O)N1C (stereo partly drawn) [Example 9137] ({CH2CO}-Y[NMeA]NPNLPWS[Bta][NMeNle][NMeA]R[ξC]G-NH2; thioether N-14)
5 | 1 to 9.9 nM | CCCC[C@H]1C(=O)N2C[C@H](O)C[C@@H]2C(=O)N[C@@H](CC(=O)O)C(=O)N[C@@H](C(C)C)C(=O)N(C)[C@@H](Cc2ccccc2)C(=O)N[C@@H](CC(=O)O)C(=O)N2C[C@H](O)C[C@@H]2C(=O)N[C@@H](Cc2c[nH]c3ccccc23)C(=O)N[C@@H](Cc2ccc(O)cc2)C(=O)N[C@@H](CCCN)C(=O)N[C@H](C(=O)NCC(N)=O)CSCC(=O)N[C@@H](Cc2ccc(F)c(F)c2)C(=O)N(C)[C@@H](Cc2ccccc2)C(=O)N1C [Example 9300] ({CH2CO}-[Phe(3,4-F2)][NMeF][NMeNle][d(cisHyp)]DV[NMeF]D[d(cisHyp)]WY[Orn]CG-NH2; thioether N-13)
6 | 100 to 990 nM | CCCC[C@H]1C(=O)N[C@@H](Cc2ccc(O)cc2)C(=O)N2CCCC[C@@H]2C(=O)N[C@@H](Cc2c[nH]c3ccccc23)C(=O)N[C@@H](Cc2ccc(O)cc2)C(=O)N[C@@H](CC(C)C)C(=O)N[C@H](C(=O)NCC(N)=O)CSCC(=O)N[C@@H](Cc2ccc(F)cc2)C(=O)N(C)[C@@H](Cc2ccccc2)C(=O)N(C)[C@@H](CCCC)C(=O)N2CCC[C@@H]2C(=O)N[C@@H](CC(=O)O)C(=O)N[C@@H](C(C)C)C(=O)N1C [Example 9214] ({CH2CO}-[Phe(4-F)][NMeF][NMeNle][dP]DV[NMeNle]Y[dPip]WYLCG-NH2; thioether N-13)
7 | 1 to 9.9 nM | CCCC[C@H]1C(=O)N(C)[C@@H](CCCC)C(=O)N[C@@H](CCN)C(=O)N[C@H](C(=O)NCC(N)=O)CSCC(=O)N[C@@H](Cc2ccc(O)cc2)C(=O)N(C)[C@@H](C)C(=O)N[C@@H](CC(N)=O)C(=O)N2CCC[C@H]2C(=O)N[C@@H](CN)C(=O)N[C@@H](CCC(N)=O)C(=O)N2C[C@H](O)C[C@H]2C(=O)N[C@@H](Cc2c[nH]c3ccccc23)C(=O)N[C@@H](CO)C(=O)N[C@@H](Cc2cn(CC(=O)O)c3ccccc23)C(=O)N1C [Example 6119] ({CH2CO}-Y[NMeA]NP[Dap]Q[Hyp]WS[Trp(1-CH2COOH)][NMeNle][NMeNle][Dab]CG-NH2; thioether N-14)
8 | 10 to 99.9 nM | CCCC[C@H]1C(=O)N2C[C@H](O)C[C@@H]2C(=O)N[C@@H](CC(=O)O)C(=O)N[C@@H](C(C)C)C(=O)N(C)[C@@H](Cc2ccccc2)C(=O)N[C@@H](Cc2ccc(O)cc2)C(=O)N2C[C@H](O)C[C@@H]2C(=O)N[C@@H](Cc2c[nH]c3ccccc23)C(=O)N[C@@H](Cc2ccc(O)cc2)C(=O)N[C@@H](CCC(=O)O)C(=O)N[C@H](C(=O)NCC(N)=O)CSCC(=O)N[C@@H](Cc2cc(F)c(F)c(F)c2)C(=O)N(C)[C@@H](Cc2ccccc2)C(=O)N1C [Example 9326] ({CH2CO}-[Phe(3,4,5-F3)][NMeF][NMeNle][d(cisHyp)]DV[NMeF]Y[d(cisHyp)]WYECG-NH2; thioether N-13)
9 | 10 to 99.9 nM | CCCC[C@H]1C(=O)N(C)[C@@H](CCCC)C(=O)N[C@@H](CN)C(=O)N[C@H](C(=O)NCC(N)=O)CSCC(=O)N[C@@H](Cc2ccc(O)cc2)C(=O)N(C)[C@@H](C)C(=O)N[C@@H](CC(N)=O)C(=O)N2CCC[C@H]2C(=O)N[C@@H](Cc2c[nH]cn2)C(=O)N[C@@H](CC(C)C)C(=O)N2CCC[C@H]2C(=O)N[C@@H](Cc2c[nH]c3ccccc23)C(=O)N[C@@H](CO)C(=O)N[C@@H](Cc2c[nH]c3ccccc23)C(=O)N1C [Example 5182]
10 | 1000 to 10000 nM | CCCC[C@H]1C(=O)N2CCC[C@@H]2C(=O)N[C@@H](CC(=O)O)C(=O)N[C@@H](C(C)C)C(=O)N(C)[C@@H](CC(C)C)C(=O)N[C@@H](CCC(N)=O)C(=O)N2CCC[C@@H]2C(=O)N[C@@H](Cc2c[nH]c3ccccc23)C(=O)N[C@@H](Cc2ccc(O)cc2)C(=O)N[C@@H](CCCN)C(=O)N[C@H](C(=O)NCC(N)=O)CSCC(=O)N[C@@H](Cc2ccc(F)cc2)C(=O)N(C)[C@@H](Cc2ccccc2)C(=O)N1C [Example 9255] ({CH2CO}-[Phe(4-F)][NMeF][NMeNle][dP]DV[NMeL]Q[dP]WY[Orn]CG-NH2; thioether N-13)
11 | 10 to 99.9 nM | CCCC[C@H]1C(=O)N(C)[C@@H](CCCC)C(=O)N[C@@H](CCCN)C(=O)N[C@H](C(=O)NCC(N)=O)CSCC(=O)N[C@@H](Cc2ccc(OC)cc2)C(=O)N(C)[C@@H](C)C(=O)N[C@@H](CC(=O)O)C(=O)N2CCC[C@H]2C(=O)N[C@@H](Cc2cnc[nH]2)C(=O)N[C@@H](CCC(=O)O)C(=O)N2C[C@H](O)C[C@H]2C(=O)N[C@@H](Cc2c[nH]c3ccccc23)C(=O)N[C@@H](CC(=O)O)C(=O)N[C@@H](Cc2c[nH]c3ccccc23)C(=O)N1C [Example 7099] ({CH2CO}-Y(Me)[NMeA]DPHE[Hyp]WDW[NMeNle][NMeNle][Orn]CG-NH2; thioether N-14)
12 | 1 to 9.9 nM | CCCC[C@H]1C(=O)N(C)[C@@H](CCCC)C(=O)N[C@@H](CCCNC(=N)N)C(=O)NC(C(=O)NCC(N)=O)CSCC(=O)N[C@@H](Cc2ccc(O)cc2)C(=O)N(C)[C@@H](C)C(=O)N[C@@H](CC(N)=O)C(=O)N2CCC[C@H]2C(=O)N[C@@H](CO)C(=O)N[C@@H](CCO)C(=O)N2CCC[C@H]2C(=O)N[C@@H](Cc2c[nH]c3ccccc23)C(=O)N[C@@H](CO)C(=O)N[C@@H](Cc2csc3ccccc23)C(=O)N1C (stereo partly drawn) [Example 10049] ({CH2CO}-Y[NMeA]NPS[hSer]PWS[Bta][NMeNle][NMeNle]R[ξC]G-NH2; thioether N-14)
13 | 10 to 99.9 nM | CCCC[C@H]1C(=O)N(C)[C@@H](CCCC)C(=O)N[C@@H](C)C(=O)N[C@H](C(=O)NCC(N)=O)CSCC(=O)N[C@@H](Cc2ccc(O)cc2)C(=O)N2CCOC[C@H]2C(=O)N[C@@H](CC(=O)O)C(=O)N2CCC[C@H]2C(=O)N[C@@H](CN)C(=O)N[C@@H](CC(C)C)C(=O)N2C[C@H](O)C[C@H]2C(=O)N[C@@H](Cc2c[nH]c3ccccc23)C(=O)N[C@@H](CO)C(=O)N[C@@H](Cc2c[nH]c3ccccc23)C(=O)N1C [Example 1522] ({CH2CO}-Y[Morpholine(3S-CO)]DP[Dap]L[Hyp]WSW[NMeNle][NMeNle]ACG-NH2; thioether N-14)
14 | 1 to 9.9 nM | CCCC[C@H]1C(=O)N2C[C@@H](O)C[C@@H]2C(=O)N[C@@H](CC(=O)O)C(=O)N[C@@H](C(C)C)C(=O)N(C)[C@H](Cc2ccccc2)C(=O)N[C@@H](Cc2ccc(O)cc2)C(=O)N2C[C@@H](O)C[C@@H]2C(=O)N[C@@H](Cc2c[nH]c3ccccc23)C(=O)N[C@@H](Cc2ccc(O)cc2)C(=O)N[C@@H](CCCN)C(=O)N[C@H](C(=O)NCC(N)=O)CSCC(=O)N[C@@H](Cc2ccc(F)c(F)c2)C(=O)N(C)[C@@H](Cc2ccccc2)C(=O)N1C [Example 9232] ({CH2CO}-[Phe(3,4-F2)][NMeF][NMeNle][dHyp]DV[dNMeF]Y[dHyp]WY[Orn]CG-NH2; thioether N-13)
15 | 1 to 9.9 nM | CCCC[C@H]1C(=O)N(C)[C@@H](CCCC)C(=O)N[C@@H](CCCN)C(=O)N[C@H](C(=O)NCC(N)=O)CSCC(=O)N[C@@H](Cc2ccc(OC)cc2)C(=O)N(C)[C@@H](C)C(=O)N[C@@H](CC(=O)O)C(=O)N2CCC[C@H]2C(=O)N[C@@H](CN)C(=O)N[C@@H](CCCCN)C(=O)N2C[C@H](O)C[C@H]2C(=O)N[C@@H](Cc2c[nH]c3ccccc23)C(=O)N[C@@H](CCN)C(=O)N[C@@H](Cc2c[nH]c3ccccc23)C(=O)N1C [Example 7089] ({CH2CO}-Y(Me)[NMeA]DP[Dap]K[Hyp]W[Dab]W[NMeNle][NMeNle][Orn]CG-NH2; thioether N-14)

From patent publication US10538555B2, “Macrocyclic inhibitors of the PD-1/PD-L1 and CD80(B7-1)/PD-L1 protein/protein interactions” (BRISTOL-MYERS SQUIBB COMPANY, priority 2014, dated 2020)
